Measured values: US20240294988A1, “METHODS OF DETERMINING RESPONSIVENESS TO CHEMOTHERAPEUTIC COMPOUNDS FOR CANCER THERAPY” (Northwestern University, priority 2021, published 2024)
“Also recorded” adds a separate entry of the source.

What was measured:
[1] = system: H4 SSR3 KO and control cells; assay: Microtubule polymerization, alpha-tubulin immunofluorescence in H4 cells; assay type: cell-based, human; details: PTX 0.5 μM, 48 h
Protocol: H4 SSR3 knockout and non-targeting control cells were grown on glass coverslips. […] The cells were then stained with α-tubulin and SSR3 antibodies at 1:100 dilution and the images were acquired on the Nikon A1 (C) confocal microscope. Microtubule bundles per cell cluster were counted for the analysis.

H4 = assay: Cell viability assay (PTX dose response, CellTiter Glo) in glioma cell lines; assay type: cell-based, human; details: H4 glioma cell line, PTX dose response curve
Protocol: GBM cells were seeded at a density of 5000 cells per well in a 96 well plate. One day after seeding, cells were checked for attachment and confluence (60-70%). […] 72 hours later cell viability was determined by CellTiter Glo (Promega).

[2] = pharmacologic data and clinical investigations; cited from earlier work
[3] = mice, systemic delivery of ABX; cited from earlier work

For `CC(=O)O[C@H]1C(=O)[C@@]2(C)[C@H]([C@H](OC(=O)c3ccccc3)[C@]3(O)C[C@H](OC(=O)[C@H](O)[C@@H](NC(=O)c4ccccc4)c4ccccc4)C(C)=C1C3(C)C)[C@]1(OC(C)=O)CO[C@@H]1C[C@@H]2O` [PTX, Paclitaxel], the “effect on microtubule polymerization” value [1] is listed as “stabilization of microtubule polymerization”, the “sensitivity to PTX among glioma cell lines” value (H4) is listed as “most sensitive; also recorded: highest degree of sensitivity” and the “crossing of the BBB” value [2] is listed as “does not cross the BBB”. For the same compound, the “enhancement of brain penetration of PTX by ultrasound therapy” value [3] was 3-5 fold.
